According to article PMC8151276, “An Integrated Approach toward NanoBRET Tracers for Analysis of GPCR Ligand Engagement” (Molecules, 2021):

Molecular target: T1, SSTR2 (Homo sapiens, UniProt P30874)
T1 construct: purchased Promega (in-house HiBiT-GPCR construct library, NanoBRET)
Assay: NanoBRET screen HiBiT-SSTR2 in HEK293
Type: binding
Procedure: Each tracer candidate was screened across the entire library of HiBiT-GPCR constructs using NanoBRET as the detection modality. As depicted in Figure 4A, the specificity of interactions was evaluated through decrease in BRET due to competitive displacement of a bound tracer by excess parental compound. Each tracer was analyzed for binding to each HiBiT-GPCR fusion in the absence and in the presence of competing parental compound. Briefly, HEK293 cells were transfected with HiBiT-GPCR constructs diluted into promoterless DNA to reduce expression and maximize translocation to the cell surface. Each tracer candidate was then screened at concentrations of 1 μM and 0.1 μM across cells expressing these fusions. Cells were treated for 1.5 h with tracer either alone or in the presence of 20 μM competing parental compound (i.e., control). BRET was measured upon addition of purified LgBiT and subsequent complementation with HiBiT genetically fused to a GPCR. The specificity of interactions was assessed through a decrease in BRET signal due to competitive displacement of the bound tracer. To further gauge the robustness of these interactions, the fold response over the control (i.e., BRETtracer/BRETcontrol) was calculated. We chose a 1.5-fold response, which translates to ≥7-fold signal over noise as the minimal threshold required to score an interaction as positive. […]. Below we highlight the screening results obtained for our exemplary fluorescent tracers based on Clozapine, Amitriptyline and AZD1283.
HiBiT-GPCR DNA constructs were diluted in 10 mM Tris pH 8 to a final concentration of 0.01 μg/μL, arrayed in 96-well plates and stored at −20 °C. For transfection, HEK293 cells were suspended in Opti-MEM (without phenol red) supplemented with 2% fetal bovine serum (Seradigm) and 100 units/mL penicillin–streptomycin (Gibco) at a final concentration of 220,000 cells/mL and dispensed into white 96-well plates at 90 μL/well. Subsequent transfections and screens were carried using an Agilent Bravo Automated Liquid Handling Platform. First, the 96-well HiBiT DNA arrays were diluted 25-fold in Opti-MEM (without serum or phenol red) to a final concentration of 0.0004 μg/μL and 20 μL of the diluted DNAs were transferred into new 96-well plates. Next, promoterless carrier DNA (1 μg/μL) was diluted 25-fold (0.04 μg/μL) and then dispensed into the diluted arrays at 20 μL/well. Following brief mixing, Viafect transfection reagent (Promega) diluted 16-fold into Opti-MEM was dispensed into the plates at 40 μL/well. After mixing by pipetting, plates were incubated for 10 min on the pipetting station deck. The DNA-transfection reagent complexes were then added to plates containing cells. To facilitate the screen, 10 μL of DNA-transfection reagent complexes were added in duplicates to the top 4 and bottom 4 rows, resulting in two identical 48-well arrays per plate. Plates with transfected cells were incubated for 18–20 h at 37 °C/5% CO2. A screen of each tracer across the entire library using two different concentrations requires duplicate plates of transfected cells. Depending on the number of tracers being screened, transfections can be scaled up using the same ratios. The next day, for each tracer, four 20× screening solutions in tracer dilution buffer (Promega) were prepared: two duplicates at final concentration of 20 μM and two duplicates at a final concentration of 2 μM. A competing unmodified compound was added to one of each duplicate at a final concentration of 400 μM. The four resulting solutions were diluted 4-fold in Opti-MEM without serum or phenol red to generate 5× solutions (5 µM and 0.5 µM tracer +/− 100 μM competing compound). To screen the library, a BioTek MultiFlo FX liquid dispenser was used to dispense 22.5 µL of tracer solution to the top 4 rows and 22.5 µL tracer + competing compound solution to the 4 bottom rows. Plates were briefly mixed on an orbital shaker and incubated for 1.5 h at room temperature. […]

T1 sequence (P30874 whole entry): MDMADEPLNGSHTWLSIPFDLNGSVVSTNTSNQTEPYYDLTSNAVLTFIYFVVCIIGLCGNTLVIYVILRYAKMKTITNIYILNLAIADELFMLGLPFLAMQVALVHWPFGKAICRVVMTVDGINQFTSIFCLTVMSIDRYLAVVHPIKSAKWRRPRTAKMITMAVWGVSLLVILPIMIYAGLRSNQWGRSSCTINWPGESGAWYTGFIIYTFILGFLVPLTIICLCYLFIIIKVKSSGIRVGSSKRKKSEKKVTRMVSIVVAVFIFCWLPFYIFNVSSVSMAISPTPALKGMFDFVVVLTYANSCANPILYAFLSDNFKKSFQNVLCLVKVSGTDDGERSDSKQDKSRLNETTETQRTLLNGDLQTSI

| Compound | NanoBRET Fold Response (SSTR2, tracer 0.1μM) | NanoBRET Fold Response (SSTR2, tracer 1μM) | also measured |
| --- | --- | --- | --- |
| O=C(CCc1ccc2n1[B-](F)(F)[N+]1=C(c3ccc[nH]3)C=CC1=C2)NCc1ccc(C(=O)NCCOCCC(=O)N[C@@H]2CC[C@@]3(O)[C@H]4Cc5ccc(O)c6c5[C@@]3(CCN4CC3CC3)[C@H]2O6)cc1 [Naltrexone-3-NB590] | 1.06 | 0.93 |  |
| CCCn1c(=O)c2[nH]c(-c3ccc(OCC(=O)NCCNC(=O)CCOCCNC(=O)c4ccc(CNC(=O)CCc5ccc6n5[B-](F)(F)[N+]5=C(c7ccc[nH]7)C=CC5=C6)cc4)cc3)nc2n(CCC)c1=O [XAC-3-NB590] | 0.97 | 1.06 |  |
| CC(C)N(CC[C@H](c1ccccc1)c1cc(CCNC(=O)c2ccc(CNC(=O)CCc3ccc4n3[B-](F)(F)[N+]3=C(c5ccc[nH]5)C=CC3=C4)cc2)ccc1O)C(C)C [Tolterodine-BZ-NB590] | 0.95 | 1.00 |  |
| COc1ccc2[nH]c(-c3ccc(CNC(=O)CCOCCOCCOCCOCCNC(=O)CCc4ccc5n4[B-](F)(F)[N+]4=C(c6ccc[nH]6)C=CC4=C5)cc3)c(CCNC(C)=O)c2n1 [AzomelatoninICO9-2-NB590] |  |  | NanoBRET Fold Response (0.1μM tracer): 1.10; NanoBRET Fold Response (1μM tracer): 1.00 |
| CN1CCN(C2=Nc3cc(Cl)ccc3N(CC(=O)NCCOCCOCCOCCOCCNC(=O)CCc3ccc4n3[B-](F)(F)[N+]3=C(c5ccc[nH]5)C=CC3=C4)c3ccccc32)CC1 [Clozapine-c-2-NB590] |  |  | NanoBRET Fold Response (SSTR2, 0.1μM tracer): 0.97; NanoBRET Fold Response (SSTR2, 1μM tracer): 1.00 |
| COc1ccccc1N1CCN(CCCCN2C(=O)c3ccc(CNC(=O)CCOCCNC(=O)c4ccc(CNC(=O)CCc5ccc6n5[B-](F)(F)[N+]5=C(c7ccc[nH]7)C=CC5=C6)cc4)cc3C2=O)CC1 [NAN-190-3-NB590] | 1.00 | 1.10 |  |
| Cc1nc2n(c(=O)c1CCN1CCC(c3noc4cc(F)ccc34)CC1)CCCC2OC(=O)NCCOCCOCCOCCOCCNC(=O)CCc1ccc2n1[B-](F)(F)[N+]1=C(c3ccc[nH]3)C=CC1=C2 (stereo not drawn) [Risperidone-2-NB590] | 0.98 | 1.01 |  |
| O=C(CCOCCOCCOCCOCCNC(=O)CCc1ccc2n1[B-](F)(F)[N+]1=C(c3ccc[nH]3)C=CC1=C2)NCCCN1CCN(C2=Nc3ccccc3Oc3ccc(Cl)cc32)CC1 [Loxapine-a-2-NB590] | 1.03 | 1.31 |  |
| COc1ccccc1N1CCN(CCCCN2C(=O)c3ccc(CNC(=O)CCOCCOCCOCCOCCNC(=O)CCc4ccc5n4[B-](F)(F)[N+]4=C(c6ccc[nH]6)C=CC4=C5)cc3C2=O)CC1 [NAN-190-2-NB590] | 0.99 | 1.03 |  |
| CC(C)N(CC[C@H](c1ccccc1)c1cc(CCNC(=O)CCOCCOCCOCCOCCNC(=O)CCc2ccc3n2[B-](F)(F)[N+]2=C(c4ccc[nH]4)C=CC2=C3)ccc1O)C(C)C [Tolterodine-2-NB590] | 1.04 | 1.00 |  |
| N#CN=C(NCCCOc1cccc(CN2CCCCC2)c1)NCCNC(=O)CCOCCOCCOCCOCCNC(=O)CCc1ccc2n1[B-](F)(F)[N+]1=C(c3ccc[nH]3)C=CC1=C2 [Aminopotentidine-2-NB590] | 0.98 | 1.02 |  |
| CCOC(=O)c1cc(C#N)c(N2CCC(C(=O)NS(=O)(=O)Cc3ccccc3/C=C/C(=O)NCCNC(=O)CCc3ccc4n3[B-](F)(F)[N+]3=C(c5ccc[nH]5)C=CC3=C4)CC2)nc1C [AZD1283-1-NB590] |  |  | NanoBRET Fold Response (SSTR2, 0.1μM): 1.02; NanoBRET Fold Response (SSTR2, 1μM): 1.09 |
| CN(C)CCC=C1c2ccccc2CCc2ccc(C(=O)NCCNC(=O)CCOCCOCCOCCOCCNC(=O)CCc3ccc4n3[B-](F)(F)[N+]3=C(c5ccc[nH]5)C=CC3=C4)cc21 [Amitriptyline-b-2-NB590] |  |  | NanoBRET Fold Response (tracer at 1μM): 0.99 |
| CN(C)CCC=C1c2ccccc2CCc2ccc(C(=O)NCCNC(=O)CCOCCOCCOCCOCCNC(=O)CCc3ccc4n3[B-](F)(F)[N+]3=C(c5ccc[nH]5)C=CC3=C4)cc21 [Amitriptyline-a-2-NB590] |  |  | NanoBRET Fold Response (tracer at 0.1μM): 1.03; NanoBRET Fold Response (tracer at 1μM): 1.03 |
| O=C(CCc1ccc2n1[B-](F)(F)[N+]1=C(c3ccc[nH]3)C=CC1=C2)NCCOCCOCCNC(=O)OCCOCCN1CCN(C2=Nc3ccccc3Sc3ccccc32)CC1 [Quetiapine-a-2-NB590] | 1.03 | 0.77 |  |
| Cc1cc2c(s1)Nc1ccccc1N=C2N1CCN(CCCNC(=O)CCOCCOCCOCCOCCNC(=O)CCc2ccc3n2[B-](F)(F)[N+]2=C(c4ccc[nH]4)C=CC2=C3)CC1 [Olanzapine-a-2-NB590] | 1.03 | 0.96 |  |
| CN1CCN(C2=Nc3cc(Cl)ccc3Nc3ccc(CNC(=O)CCOCCOCCOCCOCCNC(=O)CCc4ccc5n4[B-](F)(F)[N+]4=C(c6ccc[nH]6)C=CC4=C5)cc32)CC1 [Clozapine-b-2-NB590] |  |  | NanoBRET Fold Response (SSTR2, 0.1μM tracer): 1.03; NanoBRET Fold Response (SSTR2, 1μM tracer): 1.01 |
| COc1ccc2c(n1)c(CCNC(C)=O)cn2CCNC(=O)CCc1ccc2n1[B-](F)(F)[N+]1=C(c3ccc[nH]3)C=CC1=C2 [Azamelatonin-1-NB590] |  |  | NanoBRET Fold Response (0.1μM tracer): 1.07; NanoBRET Fold Response (1μM tracer): 0.88 |
| O=C(CCc1ccc2n1[B-](F)(F)[N+]1=C(c3ccc[nH]3)C=CC1=C2)NCc1ccc(C(=O)NCCOCCOCCNCC(O)COc2cccc3ccccc23)cc1 (stereo not drawn) [Propranolol-3-NB590] |  |  | NanoBRET Fold Response (SSTR2, 0.1μM): 1.04; NanoBRET Fold Response (SSTR2, 1μM): 1.01 |
| O=C(CCOCCOCCOCCOCCNC(=O)CCc1ccc2n1[B-](F)(F)[N+]1=C(c3ccc[nH]3)C=CC1=C2)NCCCN1CCN(C2=Nc3cc(Cl)ccc3Nc3ccccc32)CC1 [Clozapine-a-2-NB590] |  |  | NanoBRET Fold Response (SSTR2, 0.1μM tracer): 1.03; NanoBRET Fold Response (SSTR2, 1μM tracer): 1.07 |
